Source: ChEMBL document CHEMBL1201862, “PubChem BioAssay data set” (2004)
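The compound was tested at five concentrations on cells cultured in 96-well plates, with a 48-hour exposure period. Here, GI50 denotes the concentration required for 50% inhibition of growth.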 Calls of active or inactive are those of the source. Rule as the data show it: active = GI50 up to about 1.1 µM and inactive = higher.

Assays:
Assay in all cases: NCI anticancer screen, dose series, 48 h
BT-549 = test system: BT-549
MDA-N = test system: MDA-N
KM-20L2 = test system: KM-20L2
M19-MEL = test system: M19-MEL
DLD-1 = test system: DLD-1
LXFL 529 = test system: LXFL 529
SNB-78 = test system: SNB-78

Compound | GI50 (BT-549) | GI50 (MDA-N) | further results
Cc1cc(S(=O)(=O)Nc2nnc3ccccn23)c(S)cc1Cl | > 100 µM (inactive) | > 100 µM (inactive) | –
CC(CO)(CO)Nc1ncnc2ccccc12 | > 100 µM (inactive) | > 100 µM (inactive) | –
Cc1ccc(SC[C@@]2(C(F)F)NC(=O)NC2=O)cc1 | > 100 µM (inactive) | – | –
O=C1OC(C2Cc3ccc4ccccc4c3C2=O)c2ccccc21 (configuration not stated) | 37 µM (inactive) | 57.5 µM (inactive) | –
COc1ccc2c(c1)CC[C@@H]1[C@@H]2CC[C@]2(C)C(=O)/C(=C/c3cc(OC)c(OC)c(OC)c3)C[C@@H]12 | 26.3 µM (inactive) | – | –
COc1ccc(C[C@H](N)C(=O)N2C[C@@H](CO)C[C@@H](n3ccc(=O)[nH]c3=O)C2)cc1 | – | – | GI50 (KM-20L2): > 100 µM (inactive); GI50 (M19-MEL): > 100 µM (inactive); GI50 (DLD-1): > 100 µM (inactive); GI50 (LXFL 529): > 100 µM (inactive)
CCc1nnc(S)n1/N=C\c1ccc(-c2ccccc2Cl)o1 | 26.4 µM (inactive) | 20.5 µM (inactive) | –
NNC(=S)N/N=C(\CCCC(=O)NCCc1ccccc1)CC(=O)c1ccccc1 | – | – | GI50 (KM-20L2): > 100 µM (inactive); GI50 (M19-MEL): > 100 µM (inactive); GI50 (SNB-78): > 100 µM (inactive); GI50 (DLD-1): > 100 µM (inactive); GI50 (LXFL 529): > 100 µM (inactive)
COc1cc(C2SCC(=O)N2c2cc(Cl)c(Cl)cc2Cl)cc(OC)c1OC (configuration not stated) | 25.4 µM (inactive) | 25.3 µM (inactive) | –
CCC(c1c[nH]c2ccc(Br)cc12)c1c[nH]c2ccc(Br)cc12 | 10.3 µM (inactive) | 4.33 µM (inactive) | –
O=C1CSC(c2ccc(Cl)cc2)N1c1ccc(Oc2ccc(Cl)cc2)c(Cl)c1 (configuration not stated) | 15 µM (inactive) | 14.5 µM (inactive) | –
CC1(C)CC(=O)c2c(nc3c(ccc4ccccc43)c2-c2ccc(NC(=O)CCCCCCCCC(=O)Nc3ccc(-c4c5c(nc6c4ccc4ccccc46)CC(C)(C)CC5=O)cc3)cc2)C1 | – | > 100 µM (inactive) | –
O=C1OC(c2ccccc2)=N/C1=C\c1ccc([N+](=O)[O-])cc1 | 15.3 µM (inactive) | > 100 µM (inactive) | –
CCCCCC(O)C1C(=O)OC(C)C(O)/C=C/C=C/C=C/C=C\C=C(\C)C(O)CC(O)CC(O)CC(O)CC(O)CC(O)CC1O (configuration not stated) | > 50 µM (inactive) | > 50 µM (inactive) | –
c1cc(CSP234N5CCN2CCN3CCN4CC5)ccc1CSP123N4CCN1CCN2CCN3CC4 | > 100 µM (inactive) | > 100 µM (inactive) | –
CCOC(=O)/C(C(=O)NC(C)C)=C(/N)N1CCOCC1 | > 100 µM (inactive) | > 100 µM (inactive) | –
CCOC(=O)C1(C/C=C\CBr)CCCCCCC1=O (configuration not stated) | > 100 µM (inactive) | > 100 µM (inactive) | –
CCOC(NC(=O)CC)(C(F)(F)F)C(F)(F)F | > 100 µM (inactive) | > 100 µM (inactive) | –
O=C1N/C(=N/N=C\c2ccccc2)N/C1=C/c1ccc(Cl)cc1 | 16.5 µM (inactive) | 34.3 µM (inactive) | –
CCOC(=O)c1ccc2c(=O)n3c(C(=O)OCC)ccc3c(=O)n12 | > 100 µM (inactive) | > 100 µM (inactive) | –
CC1=C/C(=N\NC(N)=S)C(C(O)(C(F)(F)F)C(F)(F)F)C(C)(C)C1 (configuration not stated) | > 10 µM (inactive) | > 10 µM (inactive) | –
COc1ccc(C2OC[C@H]3O[C@@H](OCc4ccccc4)[C@H](O)[C@@H](O)[C@@H]3O2)cc1 (some centres not stated) | > 100 µM (inactive) | > 100 µM (inactive) | –
O=C(NN=C1CCCCC1)NN=C1CCCCC1 | > 100 µM (inactive) | > 100 µM (inactive) | –
CN1CCOC(c2ccc(Cl)cc2)O1 (configuration not stated) | > 100 µM (inactive) | > 100 µM (inactive) | –
CCOP(=O)(C/C=C/Cn1ncc(=O)[nH]c1=O)OCC | > 100 µM (inactive) | > 100 µM (inactive) | –
Cc1ccc(C2C(C(=O)C(C)(C)C)N2S(=O)(=O)c2ccc(C)cc2)cc1 (configuration not stated) | 17.7 µM (inactive) | 19.1 µM (inactive) | –

Compound | GI50 (BT-549) | GI50 (MDA-N) | further results
C=CCn1c(-c2ccc(Cl)cc2)cs/c1=N\c1ccccc1OC | > 52.5 µM (inactive) | 2.1 µM (inactive) | –
OCc1cc2c(ccc3sc4ccc5sc6ccc7ncccc7c6c5c4c32)s1 | 14.3 µM (inactive) | 10.3 µM (inactive) | –
CC(=O)Nc1ccc2[nH]c(C(=O)N3CC(CCl)c4c3cc([N+](=O)[O-])c3ccccc43)cc2c1 (configuration not stated) | 3.87 µM (inactive) | > 57.4 µM (inactive) | –
C=CCN(c1cc(OC)c2[nH]c(C(=O)O)c(C)c2c1[N+](=O)[O-])S(C)(=O)=O | > 100 µM (inactive) | > 100 µM (inactive) | –
C[C@@H]1OC(=O)/C(=C\N(C)C)[C@H]2CC(=O)N(CCc3cn(S(=O)(=O)C(F)(F)F)c4ccccc34)C[C@H]12 | > 100 µM (inactive) | > 100 µM (inactive) | –
CO/C(=N\N=C(/C)C(F)(F)F)c1ccncc1 | > 100 µM (inactive) | > 100 µM (inactive) | –
CC(O)C1(CNc2cc(Cl)nc(N)n2)CCCCC1 (configuration not stated) | 70.1 µM (inactive) | > 100 µM (inactive) | –
CCOC(=O)c1ccc(/N=c2/[nH]c3ccccc3s/c2=N/c2ccc(C(=O)OCC)cc2)cc1 | – | > 100 µM (inactive) | –
CSCCC(NC(=O)C(Cc1ccccc1)NC(=O)CNC(=O)CNC(=O)C(N)Cc1ccc(O)cc1)C(=O)O (configuration not stated) | – | – | GI50 (KM-20L2): > 20.3 µM (inactive); GI50 (M19-MEL): > 100 µM (inactive); GI50 (SNB-78): > 100 µM (inactive)
O=C(NC(OCc1ccccc1)(C(F)(F)F)C(F)(F)F)OCc1ccccc1 | 15.4 µM (inactive) | 15.2 µM (inactive) | –
O=C(OCc1c(-c2ccccc2)nn(-c2ccccc2)c1COC(=O)Oc1ccccc1)Oc1ccccc1 | – | > 100 µM (inactive) | –
S=C1C(CCCOCc2ccccc2)C2CCCC23CC2(CCN13)OCCS2 (configuration not stated) | – | > 10 µM (inactive) | –
COC1/C=C/C(C)C(OC)CC(O)/C=C/C(C)C(C(C)C(OC)C(C)CCC(=O)C(C)C(C/C=C/N(C)C=O)OC)OC(=O)/C=C/C=C(\C)CC(OC)C(OC)C2=CC(=O)O[C@@H](C(C)C(OC)C1)[C@H]2O (some centres not stated) | 0.0578 µM (active) | 0.0507 µM (active) | –
O=P1(c2ccccc2)C2=CCC=CC2C(c2ccccc2)N1Cc1ccccc1 (configuration not stated) | 17.4 µM (inactive) | 20.9 µM (inactive) | –
O=Cc1ccc(-c2cccc([N+](=O)[O-])c2)s1 | 81.1 µM (inactive) | – | –
CN(CCC#N)c1ccc(/C=C2\SC(=S)NC2=O)cc1 | 21.7 µM (inactive) | 53.6 µM (inactive) | –
Cc1cccc(=O)c([O-])c1.Cc1cccc(=O)c([O-])c1.[Bi+3].[Cl-] | – | – | GI50 (KM-20L2): 2.99 µM (inactive); GI50 (M19-MEL): 11 µM (inactive); GI50 (SNB-78): 24 µM (inactive); GI50 (DLD-1): 9.95 µM (inactive)
CSc1nc(C)c2c(n1)SCC2 | > 10 µM (inactive) | > 10 µM (inactive) | –
CN(C)c1nc2nonc2nc1Nc1ccccc1 | > 100 µM (inactive) | > 100 µM (inactive) | –
CN1C(=O)c2ccccc2OC12C=Cc1c(ccc3ccccc13)O2 (configuration not stated) | 5.96 µM (inactive) | 2.36 µM (inactive) | –
Nc1ncnc2c1ncn2C1OC(C(=O)OCCO)C(O)C1O (configuration not stated) | > 100 µM (inactive) | > 100 µM (inactive) | –
Cc1sc2nc3n(c(=O)c2c1C)N=CN(c1ccc(F)cc1)C3 | > 100 µM (inactive) | > 100 µM (inactive) | –
Cc1ccc(OCC2OC(n3cnc4nc(N)nc(Cl)c43)CC2Oc2ccc(C)cc2)cc1 (configuration not stated) | 22.5 µM (inactive) | 11.9 µM (inactive) | –
C=C1C[C@@H]2CC[C@@]34CC5O[C@H]6C(O[C@H]7CC[C@H](CC(=O)O[C@@H]8[C@@H](C)[C@@H]9O[C@@H]%10C[C@]%11(C[C@@H]%12O[C@]%13(C[C@H](C)[C@@H]%14O[C@@H]%15CC(C(O)CO)O[C@@H]%15C[C@@H]%14O%13)C[C@H](C)[C@@H]%12O%11)O[C@@H]%10C[C@@H]9O[C@H]8CC8O[C@@H](CC[C@@H]1O2)C[C@@H](C)C8(O)CO)O[C@@H]7[C@@H]6O3)[C@H]5O4 (some centres not stated) | 0.00891 µM (active) | 0.288 µM (active) | –
Cc1cc(C)c2c(O)cc(-c3ccc(F)cc3)nc2n1 | 65.8 µM (inactive) | – | –
